Measured values from PubChem BioAssay (NCI).
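Five concentrations, 48 hours, 96-well plates. Abbreviation: GI50, concentration required for 50% inhibition of growth. The concentration for full growth arrest is given as TGI.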

Experiments:
Assay in all cases: NCI tumour cell line growth inhibition, 48 h
SK-MEL-28 melanoma = test system: SK-MEL-28 melanoma
UACC-62 melanoma = test system: UACC-62 melanoma
A498 renal = test system: A498 renal
RXF 393 renal = test system: RXF 393 renal
MALME-3M melanoma = test system: MALME-3M melanoma
NCI/ADR-RES ovarian = test system: NCI/ADR-RES ovarian
MOLT-4 leukemia = test system: MOLT-4 leukemia
A549 NSCLC = test system: A549 NSCLC
HT29 colon = test system: HT29 colon
ACHN renal = test system: ACHN renal

SMILES | GI50 (SK-MEL-28 melanoma) [µM] | TGI (SK-MEL-28 melanoma) [µM] | GI50 (UACC-62 melanoma) [µM] | TGI (UACC-62 melanoma) [µM] | GI50 (A498 renal) [µM] | TGI (A498 renal) [µM] | GI50 (RXF 393 renal) [µM] | TGI (RXF 393 renal) [µM] | GI50 (MALME-3M melanoma) [µM] | TGI (MALME-3M melanoma) [µM] | GI50 (NCI/ADR-RES ovarian) [µM] | TGI (NCI/ADR-RES ovarian) [µM] | GI50 (MOLT-4 leukemia) [µM] | TGI (MOLT-4 leukemia) [µM] | GI50 (A549 NSCLC) [µM] | TGI (A549 NSCLC) [µM] | GI50 (HT29 colon) [µM] | TGI (HT29 colon) [µM] | GI50 (ACHN renal) [µM] | TGI (ACHN renal) [µM]
CCCCCCCCN(CCCCCCCC)CC(O)c1cc(-c2ccccc2)nc2ccc(OC)cc12 (stereo not drawn) | 62.3 | > 100 | 21.5 | > 100 | > 100 | > 100 | 43.7 | > 100 | > 100 | > 100 | 16.3 | > 100 | 23.1 | > 100 | > 100 | > 100 | 18.3 | > 100 | > 100 | > 100
O=C1/C=C/[C@@H](O)[C@@H]2C[C@@H](O)C[C@H]2/C=C/CCC[C@H](CCO)O1 | 0.0466 | 0.56 | 0.186 | > 100 | 0.0442 | 0.274 | 0.0272 | 0.117 | 0.0951 | 0.529 | 0.176 | – | 0.358 | – | 0.401 | > 100 | 0.0841 | 1.31 | 0.343 | > 100
COc1cc2c(cc1OC)C(Cl)C(c1ccc(Br)cc1)=C2Cl (stereo not drawn) | – | 30.7 | – | 50.6 | – | 33.1 | – | 24.6 | – | 28 | – | 30.9 | – | 49.2 | – | 33 | – | 28.5 | – | 21.3
O=C1c2ccccc2C(=O)N1CC#CCO | – | > 100 | – | > 100 | – | > 100 | – | > 100 | – | – | – | – | – | > 100 | – | > 100 | – | > 100 | – | > 100
O=C(Nc1ccc(Br)cc1)C(=O)C(C(=O)c1ccc(Cl)c(Cl)c1)C1OC(=O)c2ccccc21 (stereo not drawn) | – | 29.2 | – | 26.4 | – | 33.9 | – | 17.9 | – | 24.1 | – | – | – | > 100 | – | 46 | – | 45 | – | 35.5
CC(C)N1CC2CC(CN(C(=O)c3ccc(Cl)cc3)C2)C1 | – | > 100 | – | > 100 | – | > 100 | – | > 100 | – | > 100 | – | – | – | > 100 | – | > 100 | – | > 100 | – | > 100
C[C@]12CC[C@H]3[C@@H](CC[C@]4(O)C[C@@H](O)CC[C@]34C=O)[C@@]1(O)CC[C@@H]2C1=CC(=O)OC1 | – | 4.84 | – | 3.38 | – | 1.93 | – | 0.877 | – | 2.03 | – | 1.92 | – | 0.907 | – | 0.408 | – | 2.03 | – | 1.49
Cc1ccc(/C=C2\CCCCC2=O)cc1 | – | > 100 | – | > 100 | – | > 100 | – | – | – | – | – | – | – | 45.4 | – | > 100 | – | > 100 | – | > 100
Nc1ccc(C#Cc2ccccc2C#CCCCCO)cc1 | 9.31 | 21.9 | 14.9 | 28.3 | 19.8 | 42.1 | 4.69 | 20.5 | 24.8 | 43.9 | 18.9 | 40.4 | 16.5 | 35.1 | 14.7 | 28.7 | 13.3 | 26.1 | 14.5 | 27.5
Cc1cc(-c2ccccc2)nc(Nc2cc3ccccc3[nH]2)n1 | – | > 100 | – | > 100 | – | > 100 | – | – | – | > 100 | – | – | – | > 100 | – | > 100 | – | > 100 | – | > 100
CN1C(=O)N(C)C2C1NC(=S)N2/N=C/C=C/c1ccccc1[N+](=O)[O-] (stereo not drawn) | 3.7 | > 100 | 0.419 | > 100 | 0.513 | 7.26 | 2.42 | > 100 | > 100 | > 100 | 2.16 | > 100 | 0.992 | > 100 | 2.15 | > 100 | – | – | 0.988 | > 100
CCCCCCC(=O)NC1=C(N2CC2)C(=O)C(NC(=O)CCCCCC)=C(N2CC2)C1=O | > 100 | > 100 | 1.87 | > 100 | 2.62 | > 100 | 16.3 | 79.5 | 1.6 | 4.98 | 3.18 | > 100 | – | – | 2.79 | > 100 | 2.94 | > 100 | 2.76 | > 100
O=[N+]([O-])c1ccc2c(c1)C(N1CCN(CCO)CC1)Cc1ccc(F)cc1S2 (stereo not drawn) | – | 6.06 | – | 12.3 | – | 25.8 | – | 4.73 | – | – | – | 25.4 | – | 9.21 | – | 26.3 | – | 7.14 | – | 16.7
O=C(Nc1ccc(Br)c2ccccc12)c1ccc2ccccc2c1O | – | 48.1 | – | 15 | – | 30.8 | – | – | – | 9.3 | – | 12.9 | – | > 100 | – | 11 | – | 15.3 | – | > 100
C=CCC1(CN(C)C)CC/C(=C\c2ccc3c(c2)OCO3)C1=O (stereo not drawn) | – | > 100 | – | > 100 | – | > 100 | – | > 100 | – | > 100 | – | – | – | 72.8 | – | > 100 | – | > 100 | – | > 100
CC1=CC2(C)/C=C(C)/C=C\CC(O)/C=C3/C=CC(=C4C(=O)OC2(CC1C)C4=O)OC3 (stereo not drawn) | 1.6 | 3.33 | 3.3 | 10.8 | 2.65 | 8.11 | – | – | 2.14 | 5.13 | 3.08 | 12.2 | 0.47 | > 20.4 | 3.66 | 16.8 | 2.4 | > 26.4 | 1.32 | 2.67
NC(=O)NNC/C(Cl)=C(\Cl)C(=O)O | – | > 100 | – | > 100 | – | > 100 | – | > 100 | – | > 100 | – | – | – | > 100 | – | > 100 | – | > 100 | – | > 100
Nc1nc2cc(Cl)ccc2n1N | – | > 100 | – | > 100 | – | > 100 | – | > 100 | – | > 100 | – | – | – | > 100 | – | > 100 | – | > 100 | – | > 100
